Experimental data taken from PubChem BioAssay (NCI).
Several values for one entry are separate records, joined by “and”; a condition that tells them apart may be missing. Equal entries are not always repeated.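 Growth conditions: 96-well plates. Treatment: test compound, 48 hours, 5 concentrations. Analysis: linear interpolation between bracketing concentrations; unreached endpoints set to highest concentration. GI50: concentration for 50% inhibition of growth. TGI: concentration producing complete growth inhibition.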

Experiments:
Experiment in all cases: inhibition of tumour cell growth, NCI panel, 48 h
[1] = tested on: MCF7 breast
[2] = tested on: SK-MEL-28 melanoma
[3] = tested on: SN12C renal
[4] = tested on: SF-268 CNS
[5] = tested on: SW-620 colon
[6] = tested on: SR leukemia
[7] = tested on: DU-145 prostate
[8] = tested on: NCI-H23 lung
[9] = tested on: PC-3 prostate
[10] = tested on: CCRF-CEM leukemia

Row | Structure (SMILES) | GI50 [1] | TGI [1] | GI50 [2] | TGI [2] | GI50 [3] | TGI [3] | GI50 [4] | TGI [4] | GI50 [5] | TGI [5] | GI50 [6] | TGI [6] | GI50 [7] | TGI [7] | GI50 [8] | TGI [8] | GI50 [9] | TGI [9] | GI50 [10] | TGI [10]
1 | CCCCCCCCCCCCCOC(=O)c1c(C)[nH]c(/C=C2\N=C(c3ccc[nH]3)C=C2OC)c1C | 24.8 nM | > 100 µM | 0.994 µM | > 52.6 µM | 0.156 µM | > 100 µM | 109 nM | > 59 µM | 0.0204 µM | > 37.1 µM | < 11.8 nM | 0.145 µM | 42.7 nM | > 78.9 µM | 244 nM | 31.4 µM | 0.02 µM | > 100 µM | 0.0303 µM | > 100 µM
2 | Nc1nc(N)c2nc(CNc3ccc(C(=O)CC(CCC(=O)O)C(=O)O)cc3)cnc2n1 (stereo unspecified) | 71.4 nM | > 100 µM | > 50.7 µM | > 100 µM | 0.18 µM | > 100 µM | 197 nM | > 100 µM | 0.0332 µM | > 100 µM | < 19 nM | – | 2240 nM | > 100 µM | 441 nM | > 100 µM | – | > 100 µM | 0.0562 µM | > 100 µM
3 | COc1cccc(-c2nn(-c3ccccc3)cc2-c2ccnc(NCCNS(=O)(=O)c3ccc(C(F)(F)F)cc3)c2)c1 | 3150 nM | 39.1 µM | 5.66 µM | > 100 µM | 2.27 µM | 5.39 µM | 3540 nM | > 100 µM | 4.16 µM | > 100 µM | 1770 nM | 4.6 µM | 5090 nM | > 100 µM | 3230 nM | > 100 µM | 2.86 µM | 26.7 µM | 2.34 µM | > 100 µM
4 | Cc1cc(N(CCOS(C)(=O)=O)CCOS(C)(=O)=O)ccc1C=Nc1ccc(-c2csc(-c3ccccc3)n2)c(Cl)c1 | – | > 58.9 µM | – | > 62.4 µM | – | 44 µM | – | 54.8 µM | – | > 64.7 µM | – | 17.9 µM | – | 35.6 µM | – | 29 µM | – | 46.5 µM | – | 23.3 µM
5 | CCC1CCc2nc3sc(C(=O)Nc4ccccc4F)c(N)c3cc2C1 (stereo unspecified) | 318 nM | > 100 µM | 11.3 µM | > 100 µM | > 100 µM | > 100 µM | 16800 nM | > 100 µM | 0.819 µM | > 100 µM | 284 nM | 38.1 µM | 2820 nM | > 100 µM | > 100000 nM | > 100 µM | 18.8 µM | > 100 µM | 1.72 µM | > 100 µM
6 | CN1CCN(C(=O)c2ccc(NC(=O)Nc3ccc(N(C)c4ccnc(Nc5ccc(CS(C)(=O)=O)cc5)n4)cc3)cc2)CC1 | 7410 nM | > 25 µM | > 25 µM | > 25 µM | 9.42 µM | > 25 µM | 9950 nM | > 25 µM | 11 µM | > 25 µM | > 12700 nM | > 25 µM | 8780 nM | > 25 µM | 19000 nM | > 25 µM | 9.09 µM | > 25 µM | 7.07 µM | > 25 µM
7 | NC1=NC(=O)N2CC12 (stereo unspecified) | 137000 nM | 768 µM | – | > 100 µM and 196 µM | – | > 100 µM and 349 µM | – | > 100 µM and 209 µM | 48.2 µM and 58.4 µM | > 100 µM and 143 µM | 10800 nM and 14600 nM | > 100 µM and 34.8 µM and 73.9 µM | 240000 nM | 851 µM | 737000 nM | > 100 µM and 2640 µM | 86.1 µM and 321 µM | 1130 µM | 17.3 µM and 14.3 µM | > 100 µM and 58.9 µM and 89.8 µM
8 | CNC(=O)c1ccc(Nc2ncc(C(F)(F)F)c(NCc3nccnc3N(C)S(C)(=O)=O)n2)cc1 | 1790 nM and 2160 nM and 1880 nM | > 10 µM and 9.76 µM and 11.4 µM | 3.96 µM and 2.88 µM and 2.64 µM | > 10 µM and 9.49 µM and 9.43 µM | 3.46 µM and 3.4 µM and 3.41 µM | > 10 µM and 11.8 µM and 14.7 µM | 2890 nM and 2230 nM and 2730 nM | > 10 µM and 8.63 µM and 11 µM | 2.82 µM and 3.21 µM and 2.74 µM | > 10 µM and 9.82 µM and 11.7 µM | 1910 nM and 1330 nM and 2390 nM | 8.17 µM and 7.7 µM and 9.42 µM | 2600 nM and 2100 nM and 2750 nM | > 10 µM and 10.9 µM and 15.9 µM | 2610 nM and 2380 nM and 2810 nM | 8.64 µM and 7 µM | 3.54 µM and 3.41 µM and 2.85 µM | > 10 µM and 14.3 µM and 13.2 µM | 3.27 µM and 3.21 µM and 3.36 µM | –
9 | C=C(C)C(=O)NC(N)=NC#N | 109000 nM | 248 µM | 75 µM | > 56.9 µM and 205 µM | 72.1 µM | 199 µM | 139000 nM | 62.5 µM and 354 µM | 41 µM | 39.4 µM and 170 µM | – | 87.9 µM and 132 µM | 145000 nM | 291 µM | 147000 nM | 301 µM | – | 293 µM | – | 59.9 µM and 60.5 µM
10 | CC(C)(Cl)CCC1=C(Cl)C(=O)c2ccccc2C1=O | 1990 nM | 4.05 µM | 2.4 µM | 5.26 µM | 3.64 µM | 13.5 µM | 3070 nM | 11.3 µM | 1.74 µM | 3.63 µM | 2040 nM | 5.69 µM | 6120 nM | 18.2 µM | 2820 nM | 9.93 µM | 2.27 µM | 8.07 µM | 1.22 µM | 4.79 µM
